Usually IC50 stands for the midpoint of a concentration-inhibition curve.

Assay [1] concerns the target T1, CAIX (Homo sapiens, UniProt Q16790). As to the kind of experiment: Competitive fluorescence polarization assay for [113/115In]XYIMSR-01. The format is binding. More on the design: purchased R&D Systems. As to conditions: for IC50: 100 nM CAIX, 80 nM FITC-labeled 8, read-out: IC50, inhibition of fluorescence polarization of FITC labeled 8; for binding affinity to CAIX (in words): competitive fluorescence polarization. An excerpt: (§1) General Procedures. Solvents and chemicals obtained from commercial sources were of analytical grade or better and used without further purification. Fmoc-protected azidolysine, HBTU, and N-α-fmoc-L-aspartic acid α-tert-butyl ester were purchased from Chem Impex International, Inc. (Wooddale, Ill.). Carrier-free [^111In]InCl3 was purchased from MDS Nordion (Ottawa, ON, Canada). DOTA-NHS-ester (1,4,7,10-tetraazacyclododecane-1,4,7,10-tetraacetic acid mono N-hydroxysuccinimide ester) was purchased from Macrocyclics, Inc. (Dallas, Tex.). Indium (III) nitrate, triethylsilane (Et3SiH), N,N-diisopropylethylamine (DIEA), triethylamine (TEA), piperidine, 4,4-bis(4-hydroxyphenyl)valeric acid, copper iodide (CuI), and tris[(1-benzyl-1H-1,2,3-triazol-4-yl)methyl]amine (TBTA) were purchased from Sigma-Aldrich (Saint Louis, Mo.). Pre-loaded O-bis-(aminoethyl)ethylene glycol on trityl resin was purchased from EMD Millipore (Billerica, Mass.). Flash chromatography was performed using MP SiliTech 32-63 D 60 Å silica gel purchased from Bodman (Aston, Pa.). Recombinant human CAIX was purchased from R&D Systems (Minneapolis, Minn.). 1H NMR spectra were recorded on a Bruker Ultrashield 500 MHz spectrometer. Chemical shifts (δ) were reported in ppm downfield by reference to proton resonances resulting from incomplete deuteration of the NMR solvent. ESI mass spectra were obtained on a Bruker Daltonics Esquire 3000 Plus spectrometer (Billerica, Mass.).
Competitive Fluorescence Polarization Assay for [^113/115In]XYIMSR-01. Fluorescence polarization (FP) experiments were performed in 21 μL of the assay buffer (12.5 mM Tris-HCl, pH 7.5, 75 mM NaCl) in black flat bottom 384-well microplates (Corning, Inc., New York, N.Y.) The FP reaction employed 100 nM of purified CAIX (R&D systems, Minneapolis, Minn.) and 80 nM FITC-labeled 8 (Wichert, et al., 2015) within the assay buffer. The FP values were measured as mP units using the Victor3 multi-label plate reader equipped with excitation (485 nm) and emission (535 nm) filters (Perkin Elmer, Waltham, Mass.). 100 nM CAIX was incubated with serially diluted (from 1 μM to 61 fM) concentrations of the three targeting molecules, 2, XYIMSR-01, and [^113/115In]XYIMSR-01 for 30 min at room temperature in 384-well plates. 80 nM 8 was added to each well and the reaction was incubated for 30 min at room temperature followed by FP measurement. Experiments were carried out in triplicate and the concentration resulting in 50% response (IC50) was calculated in GraphPad Prism 5 (GraphPad Software, La Jolla, Calif.) using the sigmoidal dose-response regression function.

The target in assay [2] is T1, CAIX. In words: Competitive fluorescence polarization assay for [Al19F]XYIMSR-04, [63/65Cu]XYIMSR-06 and [175Lu]XYIMSR-01. The following applies: 100 nM CAIX, 80 nM FITC-labeled ligand; read-out: IC50, competitive fluorescence polarization (similar method). Further details: purchased R&D Systems. The format is binding.
Description: as §1
Competitive Fluorescence Polarization Assay for [Al^19F]XYIMSR-04, [^63/65Cu]XYIMSR-06, and [^175Lu]XYIMSR-01. Fluorescence polarization (FP) experiments were performed in 21 μL of the assay buffer (12.5 mM Tris-HCl, pH 7.5, 75 mM NaCl) in transparent flat bottom 384 well Small Volume™ LoBase Microplates (Greiner Bio-One, Frickenhausen Germany). The FP reaction employed 100 nM of purified CAIX (R&D systems, Minneapolis, Minn.) and 80 nM FITC-labeled ligand within the assay buffer. The FP values were measured as mP units using the Safire2™ plate reader (Tecan, Morrisville, N.C.) with excitation at 475 nm and emission at 532 nm emission. 100 nM CAIX was incubated with serially diluted (from 8 μM to 488.2 fM) concentrations of the […] targeting molecules, 2, [Al^19F]XYIMSR-04, [^63/65Cu]XYIMSR-06 and [^175Lu]XYIMSR-01 for 30 min at room temperature in 384 well plates. 80 nM FITC-labeled ligand was added to each well and the reaction was incubated for 30 min at room temperature followed by FP measurements. Experiments were carried out in triplicate and the concentration resulting in 50% response (IC50) was calculated in GraphPad Prism 5 (GraphPad Software, La Jolla, Calif.) using the sigmoidal dose-response regression function.
A general note: Polarisation of emitted light reports the rotation of a fluorescent probe.

SMILES strings stand for the structures.

As for `CC(CCC(=O)N[C@@H](CC(=O)N[C@@H](CC(=O)N[C@@H](CCCCn1cc(CCCC(=O)Nc2nnc(S(N)(=O)=O)s2)nn1)C(=O)NCCOCCOCCNC(=O)CN1CCN(CC(=O)O)CCN(CC(=O)O)CCN(CC(=O)O)CC1)C(=O)O)C(=O)O)(c1ccc(O)cc1)c1ccc(O)cc1` [XYIMSR-01, 2,2′,2″-(10-((14S,18S,22S)-18,22-dicarboxy-27,27-bis(4-hydroxyphenyl)-2,13,16,20,24-pentaoxo-14-(4-(4-(4-oxo-4-((5-sulfamoyl-1,3,4-thiadiazol-2-yl)amino)butyl)-1H-1,2,3-triazol-1-yl)butyl)-6,9-dioxa-3,12,15,19,23-pentaazaoctacosyl)-1,4,7,10-tetraazacyclododecane-1,4,7-triyl)triacetic acid], at CAIX [1], the IC50 was 67 nM and the “binding affinity to CAIX (in words)” value is “high binding affinity”.
Regarding `CC(CCC(=O)N[C@@H](CC(=O)N[C@@H](CC(=O)N[C@@H](CCCCn1cc(CCCC(=O)Nc2nnc(S(N)(=O)=O)s2)nn1)C(=O)NCCOCCOCCNC(=O)CN1CCN2CCN(CC1)CC(=O)[O][Al]([F])[O]C(=O)C2)C(=O)O)C(=O)O)(c1ccc(O)cc1)c1ccc(O)cc1` [[Al^19F]XYIMSR-04, [Al^19F] 2,2′-(7-((14S,18S,22S)-18,22-dicarboxy-27,27-bis(4-hydroxyphenyl)-2,13,16,20,24-pentaoxo-14-(4-(4-(4-oxo-4-((5-sulfamoyl-1,3,4-thiadiazol-2-yl)amino)butyl)-1H-1,2,3-triazol-1-yl)butyl)-6,9-dioxa-3,12,15,19,23-pentaazaoctacosyl)-1,4,7-triazonane-1,4-diyl)diacetic acid], the IC50 at CAIX [2] was 96.7 ± 3.3 nM.
Turning to `CC(CCC(=O)N[C@@H](CC(=O)N[C@@H](CC(=O)N[C@@H](CCCCn1cc(CCCC(=O)Nc2nnc(S(N)(=O)=O)s2)nn1)C(=O)NCCOCCOCCNC(=S)Nc1ccc(CC2CN(CC(=O)O)CCN(CC(=O)O)CCN2CC(=O)O)cc1)C(=O)O)C(=O)O)(c1ccc(O)cc1)c1ccc(O)cc1.[Cu]` (stereo partly drawn) [[^63/65Cu]XYIMSR-06, [^63/65Cu]2,2′,2″-(2-(4-(3-((11S,15S,19S)-15,19-dicarboxy-24,24-bis(4-hydroxyphenyl)-10,13,17,21-tetraoxo-11-(4-(4-(4-oxo-4-((5-sulfamoyl-1,3,4-thiadiazol-2-yl)amino)butyl)-1H-1,2,3-triazol-1-yl)butyl)-3,6-dioxa-9,12,16,20-tetraazapentacosyl)thioureido)benzyl)-1,4,7-triazonane-1,4,7-triyl)triacetic acid], the IC50 on CAIX [2] turned out to be 156 ± 4.3 nM.
Take `CC(CCC(=O)NC(CC(=O)NC(CC(=O)NC(CCCCn1cc(CCCC(=O)Nc2nnc(S(N)(=O)=O)s2)nn1)C(=O)NCCOCCOCCNC(=O)CN1CCN(CC(=O)O)CCN(CC(=O)O)CCN(CC(=O)O)CC1)C(=O)O)C(=O)O)(c1ccc(O)cc1)c1ccc(O)cc1` (stereo not shown) [[^113/115In]XYIMSR-01]: at CAIX [1], the IC50 stood at 108 nM and the “binding affinity to CAIX (in words)” value is “high binding affinity”.
As for `CC(CCC(=O)N[C@@H](CC(=O)N[C@@H](CC(=O)N[C@@H](CCCCn1cc(CCCC(=O)Nc2nnc(S(N)(=O)=O)s2)nn1)C(=O)NCCOCCOCCNC(=O)CN1CCN(CC(=O)O)CCN(CC(=O)O)CCN(CC(=O)O)CC1)C(=O)O)C(=O)O)(c1ccc(O)cc1)c1ccc(O)cc1.[Lu]` [[^175Lu]XYIMSR-01, [^175Lu]2,2′,2″-(10-((14S,18S,22S)-18,22-dicarboxy-27,27-bis(4-hydroxyphenyl)-2,13,16,20,24-pentaoxo-14-(4-(4-(4-oxo-4-((5-sulfamoyl-1,3,4-thiadiazol-2-yl)amino)butyl)-1H-1,2,3-triazol-1-yl)butyl)-6,9-dioxa-3,12,15,19,23-pentaazaoctacosyl)-1,4,7,10-tetraazacyclododecane-1,4,7-triyl)triacetic acid], on CAIX [2], the IC50 was 122 ± 3.8 nM.

The values are drawn from patent US20190192699A1, “NUCLEAR IMAGING AND RADIOTHERAPEUTICS AGENTS TARGETING CARBONIC ANHYDRASE IX AND USES THEREOF” (THE JOHNS HOPKINS UNIVERSITY, priority 2016, published 2019).
